# Source: patent publication US20230278972A1, “SUBSTITUTED HALOALKYL SULFONANILIDE HERBICIDES” (FMC Corporation, priority 2020, published 2023)
# Key:
# Assay type in all cases: in vivo
# [1] = system: Ryegrass, Italian (Italian ryegrass, Lolium multiflorum); test: Test A postemergence, Ryegrass, Italian; details: Postemergence
# Method in brief: (§1)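 Postemergence ratings come from foliar sprays onto one- to two-leaf plants of 2 to 10 cm grown in loam/sand; preemergence ratings come from a directed spray onto the soil of newly seeded pots. Formulation was a surfactant-containing non-phytotoxic solvent blend.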
# [2] = system: galium (catchweed bedstraw, Galium aparine); test: Test A postemergence, galium; details: Postemergence
# Method in brief: (§2)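 After sowing into a sand-amended loam, pots for the preemergence test were treated by spraying directly onto soil. In parallel, seedlings at the one- to two-leaf stage and 2 to 10 cm tall were treated postemergence with the identical surfactant-containing formulation.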
# kochia (Bassia scoparia) [3] = test: Test A preemergence, kochia; details: Preemergence; for Kochia plant response rating: 125 g ai/ha, visual injury on 0 to 100 scale (0 no effect, 100 complete control), approximately 10 days; for Plant response rating, Kochia: 0 to 100 scale (0 no effect, 100 complete control)
# Method in brief: as §1
# [4] = system: pigweed (Amaranthus retroflexus); test: Test A postemergence, pigweed; details: Postemergence
# Method in brief: as §1
# [5] = system: barnyardgrass (Echinochloa crus-galli); test: Test A preemergence, barnyardgrass; details: Preemergence; for Barnyardgrass plant response rating: 125 g ai/ha, visual injury on 0 to 100 scale (0 no effect, 100 complete control), approximately 10 days; for Plant response rating, Barnyardgrass: 0 to 100 scale (0 no effect, 100 complete control)
# Method in brief: as §1
# [6] = system: wheat (Triticum aestivum); test: Test A postemergence, wheat; details: Postemergence
# Method in brief: as §2
# [7] = system: ragweed (common ragweed, Ambrosia artemisiifolia); test: Test A preemergence, ragweed; details: Preemergence; for Ragweed plant response rating: 125 g ai/ha, visual injury on 0 to 100 scale (0 no effect, 100 complete control), approximately 10 days; for Plant response rating, Ragweed: 0 to 100 scale (0 no effect, 100 complete control)
# Method in brief: as §1
# [8] = system: pigweed (Amaranthus retroflexus); test: Test A preemergence, pigweed; details: for Pigweed plant response rating: 125 g ai/ha, visual injury on 0 to 100 scale (0 no effect, 100 complete control), approximately 10 days; for Plant response rating, Pigweed: 0 to 100 scale (0 no effect, 100 complete control)
# Method in brief: as §2
# [9] = system: Foxtail, Giant (giant foxtail, Setaria faberi); test: Test A preemergence, Foxtail, Giant; details: Preemergence; for Foxtail, Giant plant response rating: 125 g ai/ha, visual injury on 0 to 100 scale (0 no effect, 100 complete control), approximately 10 days; for Plant response rating, Foxtail, Giant: 0 to 100 scale (0 no effect, 100 complete control)
# Method in brief: as §1
# [10] = system: barnyardgrass (Echinochloa crus-galli); test: Test A postemergence, barnyardgrass; details: Postemergence
# Method in brief: as §2
# [11] = system: Ryegrass, Italian (Italian ryegrass, Lolium multiflorum); test: Test A preemergence, Ryegrass, Italian; details: Preemergence; for Ryegrass, Italian plant response rating: 125 g ai/ha, visual injury on 0 to 100 scale (0 no effect, 100 complete control), approximately 10 days; for Plant response rating, Ryegrass, Italian: 0 to 100 scale (0 no effect, 100 complete control)
# Method in brief: as §1
# kochia (Bassia scoparia) [12] = test: Test A postemergence, kochia; details: Postemergence
# Method in brief: as §1
# corn (Zea mays) = test: Test A postemergence, corn; details: Postemergence
# Method in brief: as §1
# [13] = system: Foxtail, Giant (giant foxtail, Setaria faberi); test: Test A postemergence, Foxtail, Giant; details: Postemergence
# Method in brief: as §1
# [14] = system: ragweed (common ragweed, Ambrosia artemisiifolia); test: Test A postemergence, ragweed; details: Postemergence
# Method in brief: as §1
# [15] = system: blackgrass (Alopecurus myosuroides); test: Test A postemergence, blackgrass; details: Postemergence
# Method in brief: as §1
# [16] = 125 g ai/ha, visual injury approx. 10 days, 0 to 100 scale (0 no effect, 100 complete control)
# [17] = 500 g ai/ha, visual injury vs untreated controls after approx. 10 days, 0 to 100 scale (0 no effect, 100 complete control)
# [18] = 31 g ai/ha, visual injury on 0 to 100 scale (0 no effect, 100 complete control), approx. 10 days
# [19] = 125 g ai/ha, 0 to 100 scale (0 no effect, 100 complete control)
# [20] = 31 g ai/ha, visual injury, approx. 10 days
# [21] = 31 g ai/ha, 0 to 100 scale (0 no effect, 100 complete control)
smiles,measurement,setting,value
CC(=O)OCN(c1cc(C2=NO[C@@H]3CCC[C@H]23)c(C)cc1C)S(=O)(=O)C(F)(F)F (relative stereo) [Compound 102],"Plant response rating, Ryegrass, Italian",[1]; [16],80
same,"Ryegrass, Italian plant response rating",[1]; [17],90
same,"Plant response rating, Galium",[2]; [16],100
same,Galium plant response rating,[2]; [17],100
same,Kochia plant response rating,kochia (Bassia scoparia) [3],70
same,"Plant response rating, Kochia",kochia (Bassia scoparia) [3]; 500 g ai/ha,90
same,"Plant response rating, Pigweed",[4]; [16],70
same,Pigweed plant response rating,[4]; [17],80
same,Barnyardgrass plant response rating,[5],80
same,"Plant response rating, Barnyardgrass",[5]; 500 g ai/ha,100
same,"Plant response rating, Wheat",[6]; [16],40
same,Wheat plant response rating,[6]; [17],80
same,Ragweed plant response rating,[7],20
same,"Plant response rating, Ragweed",[7]; 500 g ai/ha,70
same,Pigweed plant response rating,[8],100
same,"Plant response rating, Pigweed",[8]; 500 g ai/ha,100
same,"Foxtail, Giant plant response rating",[9],80
same,"Plant response rating, Foxtail, Giant",[9]; 500 g ai/ha,90
same,"Plant response rating, Barnyardgrass",[10]; [16],90
same,Barnyardgrass plant response rating,[10]; [17],90
same,"Ryegrass, Italian plant response rating",[11],90
same,"Plant response rating, Ryegrass, Italian",[11]; 500 g ai/ha,90
same,"Plant response rating, Kochia",kochia (Bassia scoparia) [12]; [16],70
same,Kochia plant response rating,kochia (Bassia scoparia) [12]; [17],90
same,"Plant response rating, Corn",corn (Zea mays); [16],10
same,Corn plant response rating,corn (Zea mays); [17],30
same,"Plant response rating, Foxtail, Giant",[13]; [16],30
same,"Foxtail, Giant plant response rating",[13]; [17],70
same,"Plant response rating, Ragweed",[14]; [16],70
same,Ragweed plant response rating,[14]; [17],90
same,"Plant response rating, Blackgrass",[15]; [16],0
same,Blackgrass plant response rating,[15]; [17],0
"Cc1cc(C)c(C2=NOC3(C2)CC(C)CC(C)C3)cc1NS(=O)(=O)C(F)(F)F (single isomer, unassigned) [Compound 167]","Plant response rating, Ryegrass, Italian",[1]; [18],0
same,"Plant response rating, Ryegrass, Italian",[1]; [19],20
same,"Plant response rating, Galium",[2]; [18],0
same,"Plant response rating, Galium",[2]; [19],80
same,"Plant response rating, Kochia",kochia (Bassia scoparia) [3]; [20],30
same,Kochia plant response rating,kochia (Bassia scoparia) [3],40
same,"Plant response rating, Pigweed",[4]; [18],20
same,"Plant response rating, Pigweed",[4]; [19],70
same,"Plant response rating, Barnyardgrass",[5]; [20],0
same,Barnyardgrass plant response rating,[5],20
same,"Plant response rating, Wheat",[6]; [18],0
same,"Plant response rating, Wheat",[6]; [19],30
same,"Plant response rating, Ragweed",[7]; [20],0
same,Ragweed plant response rating,[7],0
same,"Plant response rating, Pigweed",[8]; [20],0
same,Pigweed plant response rating,[8],20
same,"Plant response rating, Foxtail, Giant",[9]; [20],0
same,"Foxtail, Giant plant response rating",[9],10
same,"Plant response rating, Barnyardgrass",[10]; [18],10
same,"Plant response rating, Barnyardgrass",[10]; [19],60
same,"Plant response rating, Ryegrass, Italian",[11]; [20],30
same,"Ryegrass, Italian plant response rating",[11],60
same,"Plant response rating, Kochia",kochia (Bassia scoparia) [12]; [18],10
same,"Plant response rating, Kochia",kochia (Bassia scoparia) [12]; [19],40
same,"Plant response rating, Corn",corn (Zea mays); [18],0
same,"Plant response rating, Corn",corn (Zea mays); [19],10
same,"Plant response rating, Foxtail, Giant",[13]; [18],0
same,"Plant response rating, Foxtail, Giant",[13]; [19],10
same,"Plant response rating, Ragweed",[14]; [18],0
same,"Plant response rating, Ragweed",[14]; [19],20
same,"Plant response rating, Blackgrass",[15]; [18],0
same,"Plant response rating, Blackgrass",[15]; [19],20
"Cc1cc(C)c(C2=NOC3(C2)CC(C)CC(C)C3)cc1NS(=O)(=O)C(F)(F)F (single isomer, unassigned) [Compound 168]","Plant response rating, Ryegrass, Italian",[1]; [18],0
same,"Plant response rating, Ryegrass, Italian",[1]; [19],30
same,"Plant response rating, Galium",[2]; [18],70
same,"Plant response rating, Galium",[2]; [19],90
same,"Plant response rating, Kochia",kochia (Bassia scoparia) [3]; [20],0
same,Kochia plant response rating,kochia (Bassia scoparia) [3],20
same,"Plant response rating, Pigweed",[4]; [18],60
same,"Plant response rating, Pigweed",[4]; [19],80
same,"Plant response rating, Barnyardgrass",[5]; [20],0
same,Barnyardgrass plant response rating,[5],60
same,"Plant response rating, Wheat",[6]; [18],0
same,"Plant response rating, Wheat",[6]; [19],0
same,"Plant response rating, Ragweed",[7]; [20],0
same,Ragweed plant response rating,[7],0
same,"Plant response rating, Pigweed",[8]; [20],0
same,Pigweed plant response rating,[8],10
same,"Plant response rating, Foxtail, Giant",[9]; [20],0
same,"Foxtail, Giant plant response rating",[9],0
same,"Plant response rating, Barnyardgrass",[10]; [18],30
same,"Plant response rating, Barnyardgrass",[10]; [19],70
same,"Plant response rating, Ryegrass, Italian",[11]; [20],0
same,"Ryegrass, Italian plant response rating",[11],40
same,"Plant response rating, Kochia",kochia (Bassia scoparia) [12]; [18],0
same,"Plant response rating, Kochia",kochia (Bassia scoparia) [12]; [19],10
same,"Plant response rating, Corn",corn (Zea mays); [18],0
same,"Plant response rating, Corn",corn (Zea mays); [19],0
same,"Plant response rating, Foxtail, Giant",[13]; [18],0
same,"Plant response rating, Foxtail, Giant",[13]; [19],10
same,"Plant response rating, Ragweed",[14]; [18],0
same,"Plant response rating, Ragweed",[14]; [19],60
same,"Plant response rating, Blackgrass",[15]; [18],0
same,"Plant response rating, Blackgrass",[15]; [19],10
Cc1cc(Cl)c(NS(=O)(=O)C(F)(F)F)cc1C(=O)N1CCOC(C)C1 (centres unmarked) [Compound 1],"Plant response rating, Ryegrass, Italian",[1]; [21],0
same,"Plant response rating, Ryegrass, Italian",[1]; [16],40
same,"Plant response rating, Galium",[2]; [21],90
same,"Plant response rating, Galium",[2]; [16],100
same,"Plant response rating, Kochia",kochia (Bassia scoparia) [3]; [20],40
same,Kochia plant response rating,kochia (Bassia scoparia) [3],70
same,"Plant response rating, Pigweed",[4]; [21],50
same,"Plant response rating, Pigweed",[4]; [16],80
same,"Plant response rating, Barnyardgrass",[5]; [20],0
same,Barnyardgrass plant response rating,[5],80
same,"Plant response rating, Wheat",[6]; [21],30
same,"Plant response rating, Wheat",[6]; [16],50
same,"Plant response rating, Ragweed",[7]; [20],30
same,Ragweed plant response rating,[7],50
same,"Plant response rating, Pigweed",[8]; [20],70
same,Pigweed plant response rating,[8],100
same,"Plant response rating, Foxtail, Giant",[9]; [20],20
same,"Foxtail, Giant plant response rating",[9],90
same,"Plant response rating, Barnyardgrass",[10]; [21],70
same,"Plant response rating, Barnyardgrass",[10]; [16],90
same,"Plant response rating, Ryegrass, Italian",[11]; [20],40
same,"Ryegrass, Italian plant response rating",[11],90
same,"Plant response rating, Kochia",kochia (Bassia scoparia) [12]; [21],20
same,"Plant response rating, Kochia",kochia (Bassia scoparia) [12]; [16],60
same,"Plant response rating, Corn",corn (Zea mays); [21],20
same,"Plant response rating, Corn",corn (Zea mays); [16],30
same,"Plant response rating, Foxtail, Giant",[13]; [21],20
same,"Plant response rating, Foxtail, Giant",[13]; [16],70
same,"Plant response rating, Ragweed",[14]; [21],80
same,"Plant response rating, Ragweed",[14]; [16],90
same,"Plant response rating, Blackgrass",[15]; [21],0
same,"Plant response rating, Blackgrass",[15]; [16],50
